ChEMBL document CHEMBL1142906, “Structure-activity relationships of novel piperazines as antagonists for the melanocortin-4 receptor” (Bioorg Med Chem, 2007)

biological target: Melanocortin receptor 4 (Homo sapiens, UniProt P32245); test: Displacement of [125I]Nle4-D-Phe7-alpha-MSH from human MC4 receptor expressed in COS1 cells; format: cell-based, COS-1
Sequence (P32245 whole entry): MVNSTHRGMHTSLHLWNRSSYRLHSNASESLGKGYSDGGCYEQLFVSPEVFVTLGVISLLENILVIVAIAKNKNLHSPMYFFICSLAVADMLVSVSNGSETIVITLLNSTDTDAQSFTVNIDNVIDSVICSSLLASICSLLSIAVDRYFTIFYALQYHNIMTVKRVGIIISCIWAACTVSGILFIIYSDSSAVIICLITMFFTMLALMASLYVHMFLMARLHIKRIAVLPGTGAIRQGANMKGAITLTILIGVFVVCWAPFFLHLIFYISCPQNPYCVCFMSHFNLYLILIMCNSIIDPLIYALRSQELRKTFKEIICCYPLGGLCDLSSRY

SMILES | IC50 [nM]
CC(C)N1CCN(C(CN2CCN(CCCc3ccccc3-c3ccc(Cl)cc3)CC2)c2ccc(F)cc2)CC1 (racemic) | 53.2
CN1CCN(C(CN2CCN(CCCCc3cccc4ccccc34)CC2)c2ccc(Br)cc2)CC1 (racemic) | 159
CN1CCN(C(CN2CCN(CCCc3ccc4ccccc4c3)CC2)c2ccc(F)cc2)CC1 (racemic) | 1190
COc1ccc2ccccc2c1CCCCN1CCN(CC(c2ccc(F)cc2)N2CCN(C(C)C)CC2)CC1 (racemic) | 12.7
COc1ccc(CCCCN2CCN(CC(c3ccc(F)cc3)N3CCN(C)CC3)CC2)c2ccccc12 (racemic) | 228
Fc1ccc(C(CN2CCN(CCCCc3cccc4ccccc34)CC2)N2CCN(C3CCCCC3)CC2)cc1 (racemic) | 241
CN1CCN(C(CN2CCN(CCCCc3cccc4ccccc34)CC2)c2cccc(F)c2)CC1 (racemic) | 653
CN1CCN(C(CN2CCN(CCCCc3cccc4ccccc34)CC2)c2ccc(C(F)(F)F)cc2)CC1 (racemic) | 226
CCC(CC)N1CCN(C(CN2CCN(CCCCc3c(OC)ccc4ccccc34)CC2)c2ccc(F)cc2)CC1 (racemic) | 82.8
CN1CCN(C(CN2CCN(CCCCCCc3cccc4ccccc34)CC2)c2ccc(F)cc2)CC1 (racemic) | 341
CN1CCN(C(CN2CCN(CCCCc3cccc4ccccc34)CC2)c2ccc([N+](=O)[O-])cc2)CC1 (racemic) | 263
CN1CCN(C(CN2CCN(CCCCc3cccc4ccccc34)CC2)c2ccc(N)cc2)CC1 (racemic) | 3590
CN1CCN(C(CN2CCN(CCc3ccc4ccccc4c3)CC2)c2ccc(F)cc2)CC1 (racemic) | 1870
CC(C)N1CCN(C(CN2CCN(CCCc3ccccc3-c3ccc(OC(F)(F)F)cc3)CC2)c2ccc(F)cc2)CC1 (racemic) | 85.9
COc1ccc2ccccc2c1CCCCN1CCN(CC(c2ccc(F)cc2)N2CCN(C3CCCC3)CC2)CC1 (racemic) | 47.2
Fc1ccc(C(CN2CCN(CCCCc3cccc4ccccc34)CC2)N2CCN(C3CC3)CC2)cc1 (racemic) | 147
CC(C)N1CCN(C(CN2CCN(CCCc3ccccc3-c3ccccc3F)CC2)c2ccc(F)cc2)CC1 (racemic) | 36.8
CC(C)N1CCN(C(CN2CCN(CCCc3ccccc3-c3ccc(C(C)(C)C)cc3)CC2)c2ccc(F)cc2)CC1 (racemic) | 100
CN1CCN(C(CN2CCN(Cc3cccc4ccccc34)CC2)c2ccc(F)cc2)CC1 (racemic) | 594
CC(C)N1CCN(C(CN2CCN(CCCc3cccc(-c4ccccc4)c3)CC2)c2ccc(F)cc2)CC1 (racemic) | 156
CN1CCN(C(CN2CCN(CCCCc3cccc4ccccc34)CC2)c2ccccc2)CC1 (racemic) | 745
COc1ccc(-c2ccccc2CCCN2CCN(CC(c3ccc(F)cc3)N3CCN(C(C)C)CC3)CC2)cc1 (racemic) | 42.6
CN1CCN(C(CN2CCN(Cc3ccc4ccccc4c3)CC2)c2ccc(F)cc2)CC1 (racemic) | 1250
CN1CCN(C(CN2CCN(CCCCc3ccc4ccccc4c3)CC2)c2ccc(F)cc2)CC1 (racemic) | 336
Fc1ccc(C(CN2CCN(CCCCc3cccc4ccccc34)CC2)N2CCN(c3ccccc3)CC2)cc1 (racemic) | > 10000
CN1CCN(C(CN2CCN(CCCCc3cccc4ccccc34)CC2)c2cccc(Br)c2)CC1 (racemic) | 565
COc1ccc2ccccc2c1CCCCN1CCN(CC(c2ccc(F)cc2)N2CCN(C(C)C)CC2)CC1 (stereo in doubt; (+)-10bg) | 22
CC(C)N1CCN(C(CN2CCN(CCCCc3ccccc3-c3ccccc3)CC2)c2ccc(F)cc2)CC1 (racemic) | 65.1

SMILES | IC50 [nM]
CC(C)N1CCN(C(CN2CCN(CCCCc3c(Br)ccc4ccccc34)CC2)c2ccc(F)cc2)CC1 (racemic) | 36.8
CN1CCN(C(CN2CCN(CCCCc3cccc4ccccc34)CC2)c2ccc(F)cc2)CC1 (racemic) | 118
Cc1ccc(-c2ccccc2CCCN2CCN(CC(c3ccc(F)cc3)N3CCN(C(C)C)CC3)CC2)cc1 (racemic) | 41.8
CN1CCN(C(CN2CCN(CCCCc3cccc4ccccc34)CC2)c2ccc(Cl)cc2)CC1 (racemic) | 132
CCCN1CCN(C(CN2CCN(CCCCc3cccc4ccccc34)CC2)c2ccc(F)cc2)CC1 (racemic) | 177
CN1CCN(C(CN2CCN(CCCc3cccc4ccccc34)CC2)c2ccc(F)cc2)CC1 (racemic) | 208
CC(C)Oc1ccc2ccccc2c1CCCCN1CCN(CC(c2ccc(F)cc2)N2CCN(C(C)C)CC2)CC1 (racemic) | 22
COc1ccc(C(CN2CCN(CCCCc3cccc4ccccc34)CC2)N2CCN(C)CC2)cc1 (racemic) | 871
CN1CCN(C(CN2CCN(CCCCc3cccc4ccccc34)CC2)c2ccccc2Br)CC1 (racemic) | 2300
CCOc1ccc2ccccc2c1CCCCN1CCN(CC(c2ccc(F)cc2)N2CCN(C(C)C)CC2)CC1 (racemic) | 26
Fc1ccc(C(CN2CCN(CCCCc3cccc4ccccc34)CC2)N2CCNCC2)cc1 (racemic) | 303
CC(C)N1CCN(C(CN2CCN(CCCc3ccccc3-c3ccc(C(F)(F)F)cc3)CC2)c2ccc(F)cc2)CC1 (racemic) | 62.8
CC(C)N1CCN(C(CN2CCN(CCCc3ccc(-c4ccccc4)cc3)CC2)c2ccc(F)cc2)CC1 (racemic) | 243
CN1CCN(C(CN2CCN(CCc3cccc4ccccc34)CC2)c2ccc(F)cc2)CC1 (racemic) | 567
COc1cccc(-c2ccccc2)c1CCCN1CCN(CC(c2ccc(F)cc2)N2CCN(C(C)C)CC2)CC1 (racemic) | 15.2
COc1ccc2ccccc2c1CCCCN1CCN(CC(c2ccc(F)cc2)N2CCN(C(C)(C)C)CC2)CC1 (racemic) | 18
CCN1CCN(C(CN2CCN(CCCCc3cccc4ccccc34)CC2)c2ccc(F)cc2)CC1 (racemic) | 105
CN1CCN(C(CN2CCN(CCCCc3cccc4ccccc34)CC2)c2ccc(-c3ccccc3)cc2)CC1 (racemic) | 756
COc1ccc2ccccc2c1CCCCN1CCN(CC(c2ccc(F)cc2)N2CCN(C)CC2)CC1 (racemic) | 57.3
CC(C)N1CCN(C(CN2CCN(CCCc3ccccc3-c3ccc(-c4ccccc4)cc3)CC2)c2ccc(F)cc2)CC1 (racemic) | 228
CC(C)N1CCN(C(CN2CCN(CCCc3ccccc3-c3ccc(N(C)C)cc3)CC2)c2ccc(F)cc2)CC1 (racemic) | 92.5
CC(C)N1CCN(C(CN2CCN(CCCCc3c(O)ccc4ccccc34)CC2)c2ccc(F)cc2)CC1 (racemic) | 131
Cc1ccc(C(CN2CCN(CCCCc3cccc4ccccc34)CC2)N2CCN(C)CC2)cc1 (racemic) | 296
CC(C)N1CCN(C(CN2CCN(CCc3ccccc3-c3ccccc3)CC2)c2ccc(F)cc2)CC1 (racemic) | 186
CC(C)N1CCN(C(CN2CCN(CCCCc3cccc4ccccc34)CC2)c2ccc(F)cc2)CC1 (racemic) | 72.3
CN1CCN(C(CN2CCN(CCCCCc3cccc4ccccc34)CC2)c2ccc(F)cc2)CC1 (racemic) | 218
COc1ccc2ccccc2c1CCCCN1CCN(CC(c2ccc(F)cc2)N2CCN(C(C)C)CC2)CC1 (single isomer, unassigned; (-)) | 8.13
